pIC50: −log10 of the molar value.
Tests used:
[1] = biological target: T1, c-Met (baculovirus expressed human c-Met kinase domain P948-S1343) (Homo sapiens, UniProt P08581); assay: c-Met Luciferase-Coupled Chemiluminescent Kinase assay (LCCA); type: biochemical;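 note: kinase activity read as percent ATP left after reaction, by luciferase-luciferin chemiluminescence, with 1 µM ATP and 1 µM poly-EY substrate, 2 h at ambient temperature, 10-point dose-response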
T1 construct: human c-Met kinase domain P948-S1343; host or cells: baculovirus expression

[2] = biological target: T2, KDR (baculovirus expressed human KDR kinase domain D807-V1356) (Homo sapiens, UniProt P35968); assay: biochemical;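 note: Luciferase-coupled chemiluminescent kinase assay, activity read as percent ATP left after 4 h reaction at ambient temperature, ATP near KM, 10-point dose-response in 384-well plates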
T2 construct: human KDR kinase domain D807-V1356; host or cells: baculovirus expression

[3] = biological target: T3, Flt-4 (baculovirus expressed human Flt-4 kinase domain D725-R1298) (Homo sapiens, UniProt P35916); assay: flt-4 Alphascreen Tyrosine Kinase assay; type: biochemical; settings: read-out: flt4 IC50;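 note: AlphaScreen chemiluminescence read-out of biotinylated poly(Glu,Tyr) 4:1 phosphorylation via streptavidin donor and PY100 anti-phosphotyrosine acceptor beads, ATP near KM, 1 hr kinase reaction, 10-point dose-response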
T3 construct: human Flt-4 kinase domain D725-R1298; host or cells: baculovirus expression

[4] = biological target: T4, Flt-3 (baculovirus expressed human Flt-3 kinase domain R571-S993) (Homo sapiens, UniProt P36888); assay: biochemical; settings: read-out: flt3 IC50;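 note: Luciferase-coupled chemiluminescent kinase assay, activity read as percent ATP left after a 3 h reaction at room temperature, ATP near KM, 10-point dose-response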
T4 construct: human Flt-3 kinase domain R571-S993; host or cells: baculovirus expression
T4 sequence (P36888 571-993): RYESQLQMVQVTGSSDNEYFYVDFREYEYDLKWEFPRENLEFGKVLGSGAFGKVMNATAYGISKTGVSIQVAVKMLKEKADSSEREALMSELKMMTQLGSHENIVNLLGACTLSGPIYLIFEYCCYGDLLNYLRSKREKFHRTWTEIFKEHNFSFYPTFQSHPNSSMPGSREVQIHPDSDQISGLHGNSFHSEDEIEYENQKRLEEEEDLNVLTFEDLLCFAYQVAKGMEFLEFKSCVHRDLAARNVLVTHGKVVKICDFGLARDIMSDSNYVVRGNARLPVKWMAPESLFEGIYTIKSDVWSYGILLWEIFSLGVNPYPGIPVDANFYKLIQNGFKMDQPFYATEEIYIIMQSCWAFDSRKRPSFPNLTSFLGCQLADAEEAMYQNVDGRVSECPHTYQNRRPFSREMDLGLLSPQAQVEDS

c-Kit kinase = c-Kit kinase (Homo sapiens, UniProt P10721); assay: c-Kit AlphaScreen kinase assay; type: biochemical;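 note: c-Kit kinase phosphorylating biotinylated poly(Glu,Tyr), ATP near its KM, 1 h reaction at ambient temperature, AlphaScreen chemiluminescence with streptavidin donor and anti-phosphotyrosine acceptor beads, 10-point inhibitor titration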
c-Kit kinase, sequence (P10721 26-976): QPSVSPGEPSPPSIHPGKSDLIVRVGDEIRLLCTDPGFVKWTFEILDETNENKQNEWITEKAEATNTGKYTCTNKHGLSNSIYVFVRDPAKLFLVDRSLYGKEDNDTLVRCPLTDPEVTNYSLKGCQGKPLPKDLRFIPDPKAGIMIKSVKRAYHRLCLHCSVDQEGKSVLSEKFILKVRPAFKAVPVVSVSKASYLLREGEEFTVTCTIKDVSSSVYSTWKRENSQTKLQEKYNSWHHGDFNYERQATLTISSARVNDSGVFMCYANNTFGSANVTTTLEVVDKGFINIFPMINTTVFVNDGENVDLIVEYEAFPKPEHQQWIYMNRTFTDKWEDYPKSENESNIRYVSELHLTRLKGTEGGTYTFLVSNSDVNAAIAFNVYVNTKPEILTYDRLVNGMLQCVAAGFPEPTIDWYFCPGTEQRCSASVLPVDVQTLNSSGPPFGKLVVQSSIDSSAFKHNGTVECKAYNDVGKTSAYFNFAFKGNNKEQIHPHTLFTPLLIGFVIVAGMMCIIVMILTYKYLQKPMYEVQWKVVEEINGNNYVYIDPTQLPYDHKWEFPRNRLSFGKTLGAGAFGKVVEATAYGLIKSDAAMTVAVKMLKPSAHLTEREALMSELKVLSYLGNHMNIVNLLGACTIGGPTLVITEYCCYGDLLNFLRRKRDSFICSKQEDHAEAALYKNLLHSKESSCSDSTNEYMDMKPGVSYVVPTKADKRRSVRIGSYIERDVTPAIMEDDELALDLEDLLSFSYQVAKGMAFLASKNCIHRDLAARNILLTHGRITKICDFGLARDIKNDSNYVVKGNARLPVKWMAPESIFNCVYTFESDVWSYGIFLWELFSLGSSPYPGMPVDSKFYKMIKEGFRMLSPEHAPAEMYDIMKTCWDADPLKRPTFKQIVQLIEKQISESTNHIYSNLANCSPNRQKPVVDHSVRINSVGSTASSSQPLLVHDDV

T3 sequence (P35916 725-1298 isoform P35916-1): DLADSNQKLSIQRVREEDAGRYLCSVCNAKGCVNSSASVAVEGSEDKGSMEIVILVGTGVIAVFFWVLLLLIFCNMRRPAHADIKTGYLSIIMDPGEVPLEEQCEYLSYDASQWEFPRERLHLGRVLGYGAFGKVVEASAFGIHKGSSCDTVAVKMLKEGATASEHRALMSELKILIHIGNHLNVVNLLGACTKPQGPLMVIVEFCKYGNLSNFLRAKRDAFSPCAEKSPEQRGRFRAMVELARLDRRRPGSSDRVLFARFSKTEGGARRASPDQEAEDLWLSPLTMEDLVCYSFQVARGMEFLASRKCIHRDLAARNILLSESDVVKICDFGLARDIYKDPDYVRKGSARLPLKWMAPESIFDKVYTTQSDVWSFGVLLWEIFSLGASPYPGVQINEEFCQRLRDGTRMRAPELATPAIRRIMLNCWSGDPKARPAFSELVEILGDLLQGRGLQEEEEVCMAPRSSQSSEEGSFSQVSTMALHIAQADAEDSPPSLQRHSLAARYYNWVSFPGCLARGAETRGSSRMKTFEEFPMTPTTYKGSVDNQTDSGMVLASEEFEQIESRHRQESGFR
T2 sequence (P35968 807-1356): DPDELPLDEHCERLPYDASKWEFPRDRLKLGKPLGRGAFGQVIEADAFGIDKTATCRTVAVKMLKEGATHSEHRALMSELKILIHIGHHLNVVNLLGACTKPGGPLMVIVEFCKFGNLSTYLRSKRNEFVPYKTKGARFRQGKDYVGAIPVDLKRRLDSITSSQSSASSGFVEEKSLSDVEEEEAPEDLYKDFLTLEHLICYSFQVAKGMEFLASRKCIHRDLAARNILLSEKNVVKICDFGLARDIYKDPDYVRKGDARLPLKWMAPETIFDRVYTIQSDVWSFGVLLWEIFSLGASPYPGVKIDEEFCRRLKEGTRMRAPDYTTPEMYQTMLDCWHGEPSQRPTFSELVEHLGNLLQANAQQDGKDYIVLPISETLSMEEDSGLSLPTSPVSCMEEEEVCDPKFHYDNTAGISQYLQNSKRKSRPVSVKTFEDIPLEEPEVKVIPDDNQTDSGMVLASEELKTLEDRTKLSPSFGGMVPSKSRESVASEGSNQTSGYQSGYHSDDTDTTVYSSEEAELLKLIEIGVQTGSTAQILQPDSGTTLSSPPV
T1 sequence (P08581 1011-1343 limits assumed): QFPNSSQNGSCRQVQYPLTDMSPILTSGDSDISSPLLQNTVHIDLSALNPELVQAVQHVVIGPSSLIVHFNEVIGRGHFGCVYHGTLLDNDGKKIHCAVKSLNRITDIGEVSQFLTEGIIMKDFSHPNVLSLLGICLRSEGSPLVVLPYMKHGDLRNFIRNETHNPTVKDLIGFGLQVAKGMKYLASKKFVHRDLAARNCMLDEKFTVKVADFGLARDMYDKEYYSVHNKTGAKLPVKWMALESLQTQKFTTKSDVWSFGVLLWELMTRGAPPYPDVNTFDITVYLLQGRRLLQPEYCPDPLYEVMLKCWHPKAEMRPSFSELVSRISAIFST

pIC50 [1] | pIC50 [2] | pIC50 [3] | pIC50 [4] | pIC50 (c-Kit kinase) | Compound
6.30 to 7.30 | > 7.30 | 6.30 to 7.30 | > 7.30 | 6.30 to 7.30 | COc1cc2c(Oc3ccc(NC(=O)C(=O)NCCN4CCOCC4)cc3F)ccnc2cc1OCC1CCNCC1 [Example 298, N-[3-fluoro-4-({6-(methyloxy)-7-[(piperidin-4-ylmethyl)oxy]quinolin-4-yl}oxy)phenyl]-N′-(2-morpholin-4-ylethyl)ethanediamide]
> 7.30 | 6.30 to 7.30 | 6.30 to 7.30 | 6.30 to 7.30 | 6.30 to 7.30 | COc1cc2c(Oc3ccc(NC(=O)C(=O)N4CCCC4)cc3F)ccnc2cc1OCC1CCNCC1 [Example 299, N-[3-fluoro-4-({6-(methyloxy)-7-[(piperidin-4-ylmethyl)oxy]quinolin-4-yl}oxy)phenyl]-2-oxo-2-pyrrolidin-1-ylacetamide]
> 7.30 | 6.30 to 7.30 | 6.30 to 7.30 | 6.30 to 7.30 | 5.30 to 6.30 | CCN(C)C(=O)C(=O)Nc1ccc(Oc2ccnc3cc(OCC4CCNCC4)c(OC)cc23)c(F)c1 [Example 300, N-ethyl-N′-[3-fluoro-4-({6-(methyloxy)-7-[(piperidin-4-ylmethyl)oxy]quinolin-4-yl}oxy)phenyl]-N-methylethanediamide]
> 7.30 | 5.30 to 6.30 | 6.30 to 7.30 | 6.30 to 7.30 | 6.30 to 7.30 | COc1cc2nccc(Oc3ncc(NC(=O)C4(C(=O)NCc5ccccc5)CC4)cc3Cl)c2cc1OC [Example 301, N-(6-{[6,7-bis(methyloxy)quinolin-4-yl]oxy}-5-chloropyridin-3-yl)-N′-(phenylmethyl)cyclopropane-1,1-dicarboxamide]
> 7.30 | > 7.30 | 6.30 to 7.30 | 5.30 to 6.30 | 5.30 to 6.30 | O=C(Nc1ccc(F)cc1)C1(C(=O)Nc2ccc(Oc3ccnc4cc(Cl)ccc34)c(F)c2)CC1 [Example 303, N-{4-[(7-chloroquinolin-4-yl)oxy]-3-fluorophenyl}-N′-(4-fluorophenyl)cyclopropane-1,1-dicarboxamide]
> 7.30 | > 7.30 | > 7.30 | > 7.30 | > 7.30 | CCN(CC)CCOc1cc2nccc(Oc3ccc(NC(=O)C4(C(=O)Nc5ccc(F)cc5)CC4)cc3F)c2cc1OC [Example 304, N-(4-{[7-{[2-(diethylamino)ethyl]oxy}-6-(methyloxy)quinolin-4-yl]oxy}-3-fluorophenyl)-N′-(4-fluorophenyl)cyclopropane-1,1-dicarboxamide]
> 7.30 | 6.30 to 7.30 | 6.30 to 7.30 | 5.30 to 6.30 | 6.30 to 7.30 | COc1cc2nccc(Oc3ccc(NC(=O)C4(C(=O)Nc5ccc(F)cc5)CC4)c(C)n3)c2cc1OC [Example 306, N-(6-{[6,7-bis(methyloxy)quinolin-4-yl]oxy}-2-methylpyridin-3-yl)-N′-(4-fluorophenyl)cyclopropane-1,1-dicarboxamide]
> 7.30 | > 7.30 | > 7.30 | 6.30 to 7.30 | > 7.30 | CCN(CC)CCOc1cc2nccc(Oc3ccc(NC(=O)C4(C(=O)Nc5ccc(F)cc5)CCC4)cc3F)c2cc1OC [Example 307, N-(4-{[7-{[2-(diethylamino)ethyl]oxy}-6-(methyloxy)quinolin-4-yl]oxy}-3-fluorophenyl)-N′-(4-fluorophenyl)cyclobutane-1,1-dicarboxamide]
> 7.30 | > 7.30 | 6.30 to 7.30 | 5.30 to 6.30 | 6.30 to 7.30 | O=C(Nc1ccc(F)cc1)C1(C(=O)Nc2ccc(Oc3ccnc4cc(Cl)ccc34)cc2)CC1 [Example 308, N-{4-[(7-chloroquinolin-4-yl)oxy]phenyl}-N′-(4-fluorophenyl)cyclopropane-1,1-dicarboxamide]

Further lines, the compound ahead of its results:

Compound | pIC50 [1] | pIC50 [2] | pIC50 [3] | pIC50 [4] | pIC50 (c-Kit kinase)
COc1cc2c(Oc3ccc(NC(=O)C(=O)N[C@@H](Cc4ccccc4)C(=O)N4CCCC4)cc3F)ccnc2cc1OCC1CCNCC1 [Example 284, N-[3-fluoro-4-({6-(methyloxy)-7-[(piperidin-4-ylmethyl)oxy]quinolin-4-yl}oxy)phenyl]-N′-[(1S)-2-oxo-1-(phenylmethyl)-2-pyrrolidin-1-ylethyl]ethanediamide] | > 7.30 | 5.30 to 6.30 | 5.30 to 6.30 | 6.30 to 7.30 | 6.30 to 7.30
COc1cc2c(Oc3ccc(NC(=O)C(=O)NCCc4ccccc4)cc3F)ncnc2cc1OCC1C[C@H]2CNC[C@H]2C1 (stereo partly drawn) [Example 285, N-{3-fluoro-4-[(6-(methyloxy)-7-{[(3aR,6aS)-octahydrocyclopenta[c]pyrrol-5-ylmethyl]oxy}quinazolin-4-yl)oxy]phenyl}-N′-(2-phenylethyl)ethanediamide] | > 7.30 | > 7.30 | > 7.30 | > 7.30 | > 7.30
COc1cc2c(Oc3ccc(NC(=O)C(=O)NCCc4ccc(N)cc4)cc3F)ccnc2cc1OCC1CCNCC1 [Example 286, N-[2-(4-aminophenyl)ethyl]-N′-[3-fluoro-4-({6-(methyloxy)-7-[(piperidin-4-ylmethyl)oxy]quinolin-4-yl}oxy)phenyl]ethanediamide] | > 7.30 | 6.30 to 7.30 | 6.30 to 7.30 | 6.30 to 7.30 | 6.30 to 7.30
COc1cc2c(Oc3ccc(NC(=O)C(=O)N4CCC(Cc5ccccc5)CC4)cc3F)ccnc2cc1OCC1CCNCC1 [Example 287, N-[3-fluoro-4-({6-(methyloxy)-7-[(piperidin-4-ylmethyl)oxy]quinolin-4-yl}oxy)phenyl]-2-oxo-2-[4-(phenylmethyl)piperidin-1-yl]acetamide] | > 7.30 | > 7.30 | 6.30 to 7.30 | > 7.30 | 6.30 to 7.30
COc1cc2nccc(Oc3ccc(NC(=O)CC(=O)Nc4ccc(F)cc4)cc3)c2cc1OC [Example 288, N-(4-{[6,7-bis(methyloxy)quinolin-4-yl]oxy}phenyl)-N′-(4-fluorophenyl)propanediamide] | > 7.30 | > 7.30 | > 7.30 | > 7.30 | > 7.30
COc1cc2nccc(Oc3ncc(NC(=O)CC(=O)Nc4ccccc4)cc3Cl)c2cc1OC [Example 291, N-(6-{[6,7-bis(methyloxy)quinolin-4-yl]oxy}-5-chloropyridin-3-yl)-N′-phenylpropanediamide] | > 7.30 | 5.30 to 6.30 | 5.30 to 6.30 | > 7.30 | 6.30 to 7.30
COc1cc2nccc(Oc3ncc(NC(=O)C(C)(C)C(=O)Nc4ccc(F)cc4)cc3Cl)c2cc1OC [Example 292, N-(6-{[6,7-bis(methyloxy)quinolin-4-yl]oxy}-5-chloropyridin-3-yl)-N′-(4-fluorophenyl)-2,2-dimethylpropanediamide] | 6.30 to 7.30 | 6.30 to 7.30 | 6.30 to 7.30 | > 7.30 | 6.30 to 7.30
CCNC(=O)C(=O)Nc1ccc(Oc2ccnc3cc(OCC4CCNCC4)c(OC)cc23)c(F)c1 [Example 293, N-ethyl-N′-[3-fluoro-4-({6-(methyloxy)-7-[(piperidin-4-ylmethyl)oxy]quinolin-4-yl}oxy)phenyl]ethanediamide] | > 7.30 | 6.30 to 7.30 | 6.30 to 7.30 | 6.30 to 7.30 | 6.30 to 7.30
COc1cc2c(Oc3ccc(NC(=O)C(=O)NC(C)C)cc3F)ccnc2cc1OCC1CCNCC1 [Example 294, N-[3-fluoro-4-({6-(methyloxy)-7-[(piperidin-4-ylmethyl)oxy]quinolin-4-yl}oxy)phenyl]-N′-(1-methylethyl)ethanediamide] | > 7.30 | 6.30 to 7.30 | 5.30 to 6.30 | 6.30 to 7.30 | 6.30 to 7.30
CCCCNC(=O)C(=O)Nc1ccc(Oc2ccnc3cc(OCC4CCNCC4)c(OC)cc23)c(F)c1 [Example 295, N-butyl-N′-[3-fluoro-4-({6-(methyloxy)-7-[(piperidin-4-ylmethyl)oxy]quinolin-4-yl}oxy)phenyl]ethanediamide] | > 7.30 | 6.30 to 7.30 | 6.30 to 7.30 | 6.30 to 7.30 | 6.30 to 7.30
COCCNC(=O)C(=O)Nc1ccc(Oc2ccnc3cc(OCC4CCNCC4)c(OC)cc23)c(F)c1 [Example 296, N-[3-fluoro-4-({6-(methyloxy)-7-[(piperidin-4-ylmethyl)oxy]quinolin-4-yl}oxy)phenyl]-N′-[2-(methyloxy)ethyl]ethanediamide] | 6.30 to 7.30 | 6.30 to 7.30 | 5.30 to 6.30 | 6.30 to 7.30 | 6.30 to 7.30
COc1cc2c(Oc3ccc(NC(=O)C(=O)NCC4CC4)cc3F)ccnc2cc1OCC1CCNCC1 [Example 297, N-(cyclopropylmethyl)-N′-[3-fluoro-4-({6-(methyloxy)-7-[(piperidin-4-ylmethyl)oxy]quinolin-4-yl}oxy)phenyl]ethanediamide] | > 7.30 | 6.30 to 7.30 | 6.30 to 7.30 | 6.30 to 7.30 | 6.30 to 7.30
